Assay results taken from the NIST ThermoML archive (doi:10.1016/j.fluid.2006.03.018).
± gives the expanded uncertainty stated by the source.

Columns and labels:
[1] = for mass density: 298.15 K, 101.33 kPa
[2] = refractive index (Na D-line) (dimensionless); details: 298.15 K; 101.33 kPa; Liquid

Row | SMILES | mass density ([1]; Liquid) [kg/m3] | refractive index [2] | also measured
1 | CC(C)O [propan-2-ol] | 781.3 ± 2 | 1.3752 ± 0.001 | vapor or sublimation pressure ([1]; 353.95 K, Liquid): 95.23 ± 4.8 kPa; vapor or sublimation pressure ([1]; 354.05 K, Liquid): 95.76 ± 4.8 kPa
2 | CO [methanol] | 786.4 ± 2 | 1.3265 ± 0.001 | vapor or sublimation pressure ([1]; 336.15 K, Liquid): 95.23 ± 4.8 kPa; vapor or sublimation pressure ([1]; 336.35 K, Liquid): 95.76 ± 4.8 kPa
3 | Cc1ccc(O)cc1 [4-methylphenol] |  | 1.539 ± 0.001 | mass density ([1]; Crystal): 1155 ± 4 kg/m3; vapor or sublimation pressure ([1]; 472.85 K, Liquid): 95.23 ± 4.8 kPa
4 | Cc1ccccc1O [2-methylphenol] | 1046 ± 2.9 | 1.5468 ± 0.001 | vapor or sublimation pressure ([1]; 461.85 K, Liquid): 95.76 ± 4.8 kPa
5 | CC(C)CO [2-methyl-1-propanol] | 797.8 ± 2 | 1.3939 ± 0.001 | vapor or sublimation pressure ([1]; 379.55 K, Liquid): 95.23 ± 4.8 kPa; vapor or sublimation pressure ([1]; 379.75 K, Liquid): 95.76 ± 4.8 kPa
6 | CC(C)(C)O [2-methylpropan-2-ol] | 781.2 ± 2 | 1.3852 ± 0.001 | vapor or sublimation pressure ([1]; 354.05 K, Liquid): 95.23 ± 4.8 kPa; vapor or sublimation pressure ([1]; 354.15 K, Liquid): 95.76 ± 4.8 kPa

Further lines, with some results ahead:

Row | mass density ([1]; Liquid) [kg/m3] | refractive index [2] | SMILES | also measured
7 | 784.9 ± 2 | 1.3594 ± 0.001 | CCO [ethanol] | vapor or sublimation pressure ([1]; 349.95 K, Liquid): 95.23 ± 4.8 kPa; vapor or sublimation pressure ([1]; 350.05 K, Liquid): 95.76 ± 4.8 kPa
8 | 802.4 ± 2.1 | 1.3953 ± 0.001 | CCC(C)O (stereo not drawn) [butan-2-ol] | vapor or sublimation pressure ([1]; 371.15 K, Liquid): 95.23 ± 4.8 kPa; vapor or sublimation pressure ([1]; 371.35 K, Liquid): 95.76 ± 4.8 kPa
9 | 799.6 ± 2.2 | 1.3837 ± 0.0008 | CCCO [propan-1-ol] | vapor or sublimation pressure ([1]; 368.85 K, Liquid): 95.23 ± 4.8 kPa; vapor or sublimation pressure ([1]; 368.95 K, Liquid): 95.76 ± 4.8 kPa
10 | 805.8 ± 2.1 | 1.3974 ± 0.001 | CCCCO [butan-1-ol] | vapor or sublimation pressure ([1]; 389.45 K, Liquid): 95.76 ± 4.8 kPa; vapor or sublimation pressure ([1]; 391.55 K, Liquid): 95.23 ± 4.8 kPa
